Measurements as given in patent publication US12501900B2, “Heterocyclyl pyridazine as fungicidal compounds” (Bayer Aktiengesellschaft, priority 2018, dated 2025).

How the values were obtained:
Alternaria brassicae = assay: In vivo preventive test on Alternaria brassicae (leaf spot on radish or cabbage); settings: 144 h, 500 ppm of active ingredient, preventive spray on radish or cabbage, evaluated 6 days after inoculation, read-out: efficacy
Botrytis cinerea = assay: In vivo preventive test on Botrytis cinerea (grey mould); settings: 500 ppm of active ingredient, preventive spray on gherkin or cabbage, evaluated 4 to 5 days after inoculation, read-out: efficacy
Septoria tritici = assay: In vivo preventive test on Septoria tritici (leaf spot on wheat); settings: Zymoseptoria tritici, in Triticum aestivum; 500 ppm of active ingredient; preventive spray on wheat; evaluated 19 days after inoculation; read-out: efficacy
Experimental: Example: In Vivo Preventive Test on Septoria tritici (Leaf Spot on Wheat)
• Solvent: 5% by volume of Dimethyl sulfoxide • 10% by volume of Acetone • Emulsifier: 1 μl of Tween® 80 per mg of active ingredient
The active ingredients were made soluble and homogenized in a mixture of Dimethyl sulfoxide/Acetone//Tween®80 and then diluted in water to the desired concentration.
The young plants of wheat were treated by spraying the active ingredient prepared as described above. Control plants were treated only with an aqueous solution of Acetone/Dimethyl sulfoxide/Tween®80.
After 24 hours, the plants were contaminated by spraying the leaves with an aqueous suspension of Septoria tritici spores. The contaminated wheat plants were incubated for 72 hours at 17° C. and at 100% relative humidity and then for 15 days at 20° C. and at 90% relative humidity.
The test was evaluated 19 days after the inoculation. 0% means an efficacy which corresponds to that of the control plants while an efficacy of 100% means that no disease was observed.

Sphaerotheca fuliginea = assay: In vivo preventive test on Sphaerotheca fuliginea (powdery mildew on cucurbits); settings: Podosphaera fuliginea, 192 h; 500 ppm of active ingredient; preventive spray on gherkin; evaluated 8 days after inoculation; read-out: efficacy
[1] = system: Colletotrichum lindemuthianum; assay: In vivo preventive test on Colletotrichum lindemuthianum (leaf spot on bean); settings: 168 h, 500 ppm of active ingredient, preventive spray on bean, evaluated 7 days after inoculation, read-out: efficacy
Alternaria alternata = Alternaria alternata in vitro cell test; type: cell-based; settings: 120 h, 20 ppm of active ingredient, liquid culture, 5 days incubation, read-out: efficacy (inhibition of fungal growth)
[2] = system: Colletotrichum lindemuthianum; assay: Colletotrichum lindemuthianum in vitro cell test; type: cell-based; settings: 144 h, 20 ppm of active ingredient, liquid culture, 6 days incubation, read-out: efficacy (inhibition of fungal growth)

COc1cccc(Oc2nnc(Cl)cc2C2=NOCC(Cc3ccc(C)cc3C)N2)c1F (racemic) [I-005, rac-3-[6-chloro-3-(2-fluoro-3-methoxy-phenoxy)pyridazin-4-yl]-5-[(2,4-dimethylphenyl)methyl]-5,6-dihydro-4H-1,2,4-oxadiazine]
90 to 100%: pest or weed control at 500 ppm (Alternaria brassicae) | pest or weed control at 500 ppm (Botrytis cinerea) | pest or weed control at 500 ppm (Septoria tritici) | pest or weed control at 500 ppm (Sphaerotheca fuliginea) | pest or weed control at 500 ppm [1] | inhibition at 20 ppm (Alternaria alternata) | inhibition at 20 ppm [2]

C=C(OCC)c1cc(C2=NOCC(Cc3ccc(C)cc3C)N2)c(Oc2cccc(C(F)(F)F)c2)nn1 (racemic) [I-009, rac-5-[(2,4-dimethylphenyl)methyl]-3-[6-(1-ethoxyvinyl)-3-[3-(trifluoro-methyl)phenoxy]pyridazin-4-yl]-5,6-dihydro-4H-1,2,4-oxadiazine]
90 to 100%: pest or weed control at 500 ppm (Alternaria brassicae) | pest or weed control at 500 ppm (Botrytis cinerea) | pest or weed control at 500 ppm (Septoria tritici) | pest or weed control at 500 ppm (Sphaerotheca fuliginea) | pest or weed control at 500 ppm [1] | inhibition at 20 ppm (Alternaria alternata) | inhibition at 20 ppm [2]

FC(F)(F)c1cccc(Oc2nnc(Cl)cc2C2=NOCC(Cc3ccc(Br)cc3Cl)N2)c1 (racemic) [I-016, rac-5-[(4-bromo-2-chloro-phenyl)methyl]-3-[6-chloro-3-[3-(trifluoromethyl)phenoxy]pyridazin-4-yl]-5,6-dihydro-4H-1,2,4-oxadiazine]
90 to 100%: pest or weed control at 500 ppm (Alternaria brassicae) | pest or weed control at 500 ppm (Botrytis cinerea) | pest or weed control at 500 ppm (Septoria tritici) | pest or weed control at 500 ppm (Sphaerotheca fuliginea) | pest or weed control at 500 ppm [1] | inhibition at 20 ppm (Alternaria alternata) | inhibition at 20 ppm [2]

COCCOc1c(Cl)nnc(Oc2cccc(C(F)(F)F)c2)c1C1=NOCC(Cc2ccc(C)cc2C)N1 (racemic) [I-072, rac-3-[6-chloro-5-(2-methoxyethoxy)-3-[3-(trifluoro-methyl)phenoxy]pyridazin-4-yl]-5-[(2,4-dimethylphenyl)methyl]-5,6-dihydro-4H-1,2,4-oxadiazine]
90 to 100%: pest or weed control at 500 ppm (Alternaria brassicae) | pest or weed control at 500 ppm (Botrytis cinerea) | pest or weed control at 500 ppm (Septoria tritici) | pest or weed control at 500 ppm (Sphaerotheca fuliginea) | pest or weed control at 500 ppm [1] | inhibition at 20 ppm (Alternaria alternata) | inhibition at 20 ppm [2]
